ChEMBL document CHEMBL1201862, “PubChem BioAssay data set” (2004)
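Cells were grown in 96-well plates and exposed to each compound for 48 hours at five concentrations; endpoints were interpolated linearly between bracketing concentrations, or set to the highest concentration if not reached. Abbreviation: GI50, concentration required for 50% inhibition of growth.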 Active and inactive are the calls of the source. No stated cut-off is given here; in the data, active = GI50 up to about 1.1 µM and inactive = higher.

Tests used:
Assay in all cases: inhibition of tumour cell growth, NCI panel, 48 h
KM12 = test system: KM12
HCC 2998 = test system: HCC 2998
A498 = test system: A498
HOP-92 = test system: HOP-92
Malme-3M = test system: Malme-3M
LOX IMVI = test system: LOX IMVI
OVCAR-3 = test system: OVCAR-3
RPMI-8226 = test system: RPMI-8226
HCT-15 = test system: HCT-15
A549 = test system: A549
OVCAR-4 = test system: OVCAR-4
SN12C = test system: SN12C
CAKI-1 = test system: CAKI-1
U-251 = test system: U-251
ACHN = test system: ACHN
NCI-H522 = test system: NCI-H522
M14 = test system: M14
HL-60 = test system: HL-60
HCT-116 = test system: HCT-116
MOLT-4 = test system: MOLT-4

| SMILES | GI50 (KM12) | GI50 (HCC 2998) | GI50 (A498) | GI50 (HOP-92) | GI50 (Malme-3M) | GI50 (LOX IMVI) | GI50 (OVCAR-3) | GI50 (RPMI-8226) | GI50 (HCT-15) [µM] | GI50 (A549) | GI50 (OVCAR-4) | GI50 (SN12C) | GI50 (CAKI-1) | GI50 (U-251) | GI50 (ACHN) | GI50 (NCI-H522) | GI50 (M14) | GI50 (HL-60) | GI50 (HCT-116) | GI50 (MOLT-4) |
| --- | --- | --- | --- | --- | --- | --- | --- | --- | --- | --- | --- | --- | --- | --- | --- | --- | --- | --- | --- | --- |
| COc1cc(/C=C2/C(=O)N(C(=O)c3ccccc3O)N=C2C)ccc1O | 0.202 µM (active) | 4.65 µM (inactive) | 0.0771 µM (active) | 0.143 µM (active) | 0.43 µM (active) | 0.465 µM (active) | 0.4 µM (active) | 1.06 µM (active) | 0.406 | 0.358 µM (active) | 1.28 µM (inactive) | 0.719 µM (active) | 0.217 µM (active) | 0.144 µM (active) | 0.123 µM (active) | 0.593 µM (active) | 0.698 µM (active) | 0.536 µM (active) | 0.0957 µM (active) |  |
| CC(=O)C1=C(O)C(N)C2Cc3c(c(O)c4c(O)c(C)ccc4c3C)C(=O)C2(O)C1=O (configuration not stated) | 1.9 µM (inactive) | 3.28 µM (inactive) | 2.8 µM (inactive) | 1.6 µM (inactive) | 1.29 µM (inactive) | 0.973 µM (active) | 1.3 µM (inactive) | 1.27 µM (inactive) | 0.774 | 1.61 µM (inactive) | 5.61 µM (inactive) | 1.37 µM (inactive) | 1.52 µM (inactive) | 0.885 µM (active) | 1.35 µM (inactive) | 3.98 µM (inactive) | 2.47 µM (inactive) | 2.23 µM (inactive) | 1.28 µM (inactive) | 1.71 µM (inactive) |
| COc1cc(C2CC(C)(Nc3ccccc3)Oc3cc4c(cc32)OCO4)cc(OC)c1OC (configuration not stated) | 0.19 µM (active) | 0.729 µM (active) | 2.97 µM (inactive) | 15.8 µM (inactive) | 3.29 µM (inactive) | 0.256 µM (active) | 0.219 µM (active) | 0.263 µM (active) | 0.161 | 2.14 µM (inactive) | 1.84 µM (inactive) | 0.247 µM (active) | 0.478 µM (active) | 0.279 µM (active) | 0.499 µM (active) | 0.296 µM (active) | 0.223 µM (active) | 0.0906 µM (active) | 0.23 µM (active) | 0.535 µM (active) |
| CN1C(=O)c2ccc3ccccc3c2C1=O | > 100 µM (inactive) | > 100 µM (inactive) | 47.3 µM (inactive) | 98.6 µM (inactive) |  |  | > 100 µM (inactive) | > 100 µM (inactive) | > 100 | > 100 µM (inactive) | > 100 µM (inactive) | > 100 µM (inactive) | > 100 µM (inactive) | > 100 µM (inactive) | > 100 µM (inactive) | 86.1 µM (inactive) | > 100 µM (inactive) | 28.1 µM (inactive) | 77.4 µM (inactive) | > 100 µM (inactive) |
| CCOC(=O)c1cccc(/N=N/c2ncc(/C=C/C(=O)OC)[nH]2)c1 | 23.2 µM (inactive) | 17.9 µM (inactive) | 20.8 µM (inactive) | 32.1 µM (inactive) | 22.6 µM (inactive) | 15.3 µM (inactive) | 23.3 µM (inactive) | 16.3 µM (inactive) | 9.59 | 24.5 µM (inactive) | 17.9 µM (inactive) | 7.03 µM (inactive) | 14.5 µM (inactive) | 22.6 µM (inactive) | 22 µM (inactive) | 15.7 µM (inactive) | 26 µM (inactive) | 5.97 µM (inactive) | 18.2 µM (inactive) | 6.97 µM (inactive) |
| COC(=O)C1C2C=CC(C2)N1[C@@H](C)c1ccccc1 (some centres not stated) | > 100 µM (inactive) | > 100 µM (inactive) | > 100 µM (inactive) | > 100 µM (inactive) | > 100 µM (inactive) | > 100 µM (inactive) | > 100 µM (inactive) | > 100 µM (inactive) | > 100 | > 100 µM (inactive) |  | > 100 µM (inactive) | > 100 µM (inactive) | > 100 µM (inactive) | > 100 µM (inactive) | > 100 µM (inactive) | > 100 µM (inactive) | > 100 µM (inactive) | > 100 µM (inactive) |  |
| COC(=O)c1ccccc1C1CN=NC12Cc1cccc(C)c1C2=O (configuration not stated) | 26.8 µM (inactive) | > 100 µM (inactive) | 54.6 µM (inactive) | 25.5 µM (inactive) | 43.7 µM (inactive) | 55 µM (inactive) | 22.1 µM (inactive) | 29 µM (inactive) | 46.5 | 39.3 µM (inactive) | 33 µM (inactive) | 36.1 µM (inactive) | 46.1 µM (inactive) | 56 µM (inactive) | 35.3 µM (inactive) | 27.3 µM (inactive) |  | 24.7 µM (inactive) | 37.4 µM (inactive) | 32.8 µM (inactive) |
| O=C1OC(c2ccccc2)=N/C1=C/NC(Cc1ccc(O)cc1)C(=O)O (configuration not stated) | > 100 µM (inactive) | > 100 µM (inactive) | > 100 µM (inactive) | > 100 µM (inactive) | > 100 µM (inactive) | > 100 µM (inactive) | > 100 µM (inactive) | > 100 µM (inactive) | > 100 | > 100 µM (inactive) | > 100 µM (inactive) |  | > 100 µM (inactive) | > 100 µM (inactive) | > 100 µM (inactive) | > 100 µM (inactive) | > 100 µM (inactive) | > 100 µM (inactive) | > 100 µM (inactive) |  |
